According to ChEMBL document CHEMBL4000201, “Benzylideneoxymorphone: A new lead for development of bifunctional mu/delta opioid receptor ligands” (Bioorg Med Chem Lett, 2017):

Columns and labels:
[1] = Displacement of [3H]DPDPE from DOR in guinea pig brain membranes measured after 60 mins by scintillation counting method; assay type: cell membranes, Cavia porcellus, Membrane
[2] = biological target: Mu-type opioid receptor (Homo sapiens, UniProt P35372); assay: Displacement of [3H]DAMGO from human MOR expressed in CHO cells; assay type: cell-based
Mu-type opioid receptor, sequence (P35372 whole entry): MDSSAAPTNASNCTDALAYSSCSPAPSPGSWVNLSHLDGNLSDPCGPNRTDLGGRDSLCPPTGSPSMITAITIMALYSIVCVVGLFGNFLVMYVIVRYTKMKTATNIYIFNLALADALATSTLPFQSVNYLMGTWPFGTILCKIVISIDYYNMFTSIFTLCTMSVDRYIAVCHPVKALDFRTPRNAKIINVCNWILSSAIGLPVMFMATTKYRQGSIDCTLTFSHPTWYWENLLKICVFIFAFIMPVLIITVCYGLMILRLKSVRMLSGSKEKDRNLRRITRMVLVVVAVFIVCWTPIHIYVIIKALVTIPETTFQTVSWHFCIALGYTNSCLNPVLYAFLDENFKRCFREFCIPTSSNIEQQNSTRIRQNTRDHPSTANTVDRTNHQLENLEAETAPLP

[3] = biological target: Delta-type opioid receptor (Homo sapiens, UniProt P41143); assay: Displacement of [3H]DPDPE from human DOR expressed in CHO cells; assay type: cell-based
Delta-type opioid receptor, sequence (P41143 whole entry): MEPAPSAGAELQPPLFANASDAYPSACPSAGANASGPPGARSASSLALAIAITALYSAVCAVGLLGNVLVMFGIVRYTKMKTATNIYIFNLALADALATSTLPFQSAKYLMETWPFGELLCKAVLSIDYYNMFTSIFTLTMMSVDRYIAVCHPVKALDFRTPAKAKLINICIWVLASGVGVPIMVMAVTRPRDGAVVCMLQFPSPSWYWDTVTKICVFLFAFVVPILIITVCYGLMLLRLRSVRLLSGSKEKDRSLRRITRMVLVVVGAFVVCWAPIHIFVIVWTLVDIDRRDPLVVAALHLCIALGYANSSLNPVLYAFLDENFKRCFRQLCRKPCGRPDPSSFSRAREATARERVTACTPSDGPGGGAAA

[4] = system: Mus musculus; assay: Antinociceptive activity in Swiss-Webster mouse assessed as maximum possible effect at 20 to 60 mg/kg, sc after 30 mins measured every 20 mins for 90 mins by hot plate test; assay type: functional
[5] = system: Mus musculus; assay: Antinociceptive activity in Swiss-Webster mouse assessed as time required for peak effect at 60 mg/kg, sc after 30 mins measured every 20 mins for 90 mins by hot plate test; assay type: functional

Row | Compound | Ki [1] | Ki [2] | Ki [3] | MPE [4] | Time [5]
1 | O=C1/C(=C/c2ccccc2)C[C@@]2(O)[C@H]3Cc4ccc(O)c5c4[C@@]2(CCN3CC2CC2)[C@H]1O5 [BNTX] | 0.0062 µM |  |  |  | 
2 | O=C1/C(=C/c2ccccc2)C[C@@]2(O)[C@H]3Cc4ccc(O)c5c4[C@@]2(CCN3CCCc2ccccc2)[C@H]1O5 |  | 0.313 µM | 0.168 µM |  | 
3 | CN1CC[C@]23c4c5ccc(O)c4O[C@H]2C(=O)/C(=C/c2ccccc2)C[C@@]3(O)[C@H]1C5 |  | 0.0175 µM | 0.0144 µM | 40% | 50 min
